Data on eight compounds can be found in ChEMBL document CHEMBL1201862, “PubChem BioAssay data set” (2004).

Test systems include HL-60; U-251; SK-MEL-5; SK-MEL-28; SF-539; T47D; SR; EKVX; NCI/ADR-RES; MDA-MB-231; SNB-19; HCT-116; Malme-3M; OVCAR-4; UACC-257; DU-145; SF-295; MOLT-4; TK-10; HCC 2998.
Holding throughout (test): NCI tumour cell line growth inhibition, 48 h

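Tested at 5 concentrations; 48 h exposure; 96-well plates; endpoints linearly interpolated, else capped at highest concentration. Abbreviation: GI50, concentration required for 50% inhibition of growth.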 Activity calls are given as the source filed them. No stated cut-off is given here; in the data, active = GI50 up to about 1.1 µM and inactive = higher. A value given as a limit tells only on which side of the number the result lay.

Regarding `NC1=NC(c2ccc(Cl)cc2)N(c2ccc(S(=O)(=O)Nc3ncccn3)cc2)C(N)=N1` (centres undefined), the GI50 is 0.178 µM (active) with HL-60; > 100 µM (inactive) with U-251; > 100 µM (inactive) in the assay with SK-MEL-5; > 100 µM (inactive) in the assay on SK-MEL-28; > 100 µM (inactive) in the assay on SF-539; > 100 µM (inactive) in the assay on T47D. In addition, the GI50 with SR, with EKVX, in the assay with NCI/ADR-RES, in the assay on MDA-MB-231, in the assay on SNB-19 and in the assay with HCT-116 was > 100 µM (inactive) throughout. Besides, the GI50 is > 100 µM (inactive) in the assay with Malme-3M; > 100 µM (inactive) in the assay with OVCAR-4; > 100 µM (inactive) in the assay with UACC-257; > 100 µM (inactive) in the assay with DU-145; > 100 µM (inactive) in the assay on SF-295; 54.8 µM (inactive) with MOLT-4. Also, the GI50 in the assay with TK-10 is > 100 µM (inactive).
For the compound `CC1=CCS(=O)(=O)C1C(O)C1=C(C)CCCC1(C)C` (centres undefined), the GI50 in the assay on HL-60 was 35.3 µM (inactive); in the assay with U-251, 56.8 µM (inactive); in the assay on SK-MEL-5, 44.4 µM (inactive); in the assay with HCC 2998, > 100 µM (inactive); in the assay on SK-MEL-28, > 100 µM (inactive); in the assay with SF-539, > 100 µM (inactive). Besides, the GI50 was 45.7 µM (inactive) in the assay on T47D; > 100 µM (inactive) with EKVX; 78.7 µM (inactive) in the assay with NCI/ADR-RES; > 100 µM (inactive) in the assay with MDA-MB-231; > 100 µM (inactive) in the assay with SNB-19; 72.3 µM (inactive) in the assay on HCT-116. Moreover, the GI50 in the assay on Malme-3M is 60 µM (inactive); in the assay on OVCAR-4, 84.5 µM (inactive); in the assay on UACC-257 it was 58.9 µM (inactive); with DU-145, > 100 µM (inactive); in the assay with SF-295 it was 22.2 µM (inactive); with MOLT-4 it was 51.2 µM (inactive). In addition, in the assay on TK-10, the GI50 was > 100 µM (inactive).
Regarding `Cc1ccc2[nH]c(=O)c(-c3cnc(O)nn3)c(O)c2c1`, the GI50 is > 100 µM (inactive) with HL-60; > 100 µM (inactive) in the assay with U-251; 11.8 µM (inactive) with SK-MEL-5; > 100 µM (inactive) in the assay on SK-MEL-28; > 100 µM (inactive) in the assay with SF-539; 53.2 µM (inactive) with T47D. For the same compound, the GI50 in the assay with SR is > 100 µM (inactive); in the assay on EKVX, 3.4 µM (inactive); in the assay on NCI/ADR-RES it was > 100 µM (inactive); with MDA-MB-231 it was > 100 µM (inactive); in the assay with HCT-116, 32.7 µM (inactive); with Malme-3M, > 100 µM (inactive). Besides, the GI50 with OVCAR-4 is 17.8 µM (inactive); with UACC-257 it was 57.4 µM (inactive); with DU-145, > 100 µM (inactive); in the assay with SF-295, 60.7 µM (inactive); with MOLT-4 it was 5.06 µM (inactive); with TK-10, > 100 µM (inactive).
Consider `Oc1c(CN2CCN(c3ccccc3)CC2)cc(Br)c2cccnc12`, for which the GI50 with HL-60 is 0.485 µM (active); in the assay with U-251 it was 0.671 µM (active); in the assay on SK-MEL-5 it was 0.805 µM (active); in the assay with SK-MEL-28, 3.97 µM (inactive); in the assay on SF-539 it was 2.07 µM (inactive); in the assay on T47D it was 1.32 µM (inactive). Further, the GI50 in the assay on SR is 0.284 µM (active); in the assay on EKVX it was 2.62 µM (inactive); in the assay with NCI/ADR-RES, 0.206 µM (active); in the assay with MDA-MB-231, 2.33 µM (inactive); with SNB-19, 1.69 µM (inactive); in the assay with HCT-116, 0.448 µM (active). The GI50 was 0.995 µM (active) with Malme-3M; 1.7 µM (inactive) in the assay on OVCAR-4; 2.96 µM (inactive) with UACC-257; 1.63 µM (inactive) with DU-145; 1.21 µM (inactive) in the assay on SF-295; 0.349 µM (active) with MOLT-4. Further, the GI50 with TK-10 was 3.61 µM (inactive).
In the case of `C[C@]12CC[C@H]3[C@@H](CC=C4C[C@@H](N5CCCC5)CC[C@@]43C)[C@@H]1C/C(=C\c1ccc([N+](=O)[O-])cc1)[C@@H]2O`, the GI50 is 12.7 µM (inactive) with U-251; 15 µM (inactive) in the assay with SK-MEL-5; 14.1 µM (inactive) in the assay with SK-MEL-28; 15.4 µM (inactive) in the assay with SF-539; 20.7 µM (inactive) with T47D; 1.88 µM (inactive) with SR. In addition, the GI50 with NCI/ADR-RES is 17.7 µM (inactive); with MDA-MB-231, 16.2 µM (inactive); in the assay with SNB-19, 24.7 µM (inactive); in the assay on HCT-116, 16.3 µM (inactive); with Malme-3M, 16.5 µM (inactive); in the assay on OVCAR-4, 12.1 µM (inactive). In addition, the GI50 in the assay with UACC-257 was 16.4 µM (inactive); in the assay with DU-145, 17.3 µM (inactive); in the assay with SF-295, 24.9 µM (inactive); with MOLT-4, 0.942 µM (active); in the assay with TK-10, 17.5 µM (inactive).
In the case of `O=C1NC(=O)C(c2c[nH]c3cc(Br)ccc23)=C1c1cnc[nH]1`, the GI50 is 20.4 µM (inactive) with HL-60; 32.5 µM (inactive) in the assay with U-251; 11 µM (inactive) with SK-MEL-5; 62.1 µM (inactive) with SK-MEL-28; 21.9 µM (inactive) in the assay on SF-539; 48.8 µM (inactive) in the assay on T47D. Moreover, the GI50 is 31.3 µM (inactive) in the assay with SR; 23.4 µM (inactive) in the assay on EKVX; > 100 µM (inactive) in the assay with NCI/ADR-RES; 27.9 µM (inactive) in the assay with MDA-MB-231; > 100 µM (inactive) in the assay with SNB-19; 25.8 µM (inactive) with HCT-116. The GI50 was > 100 µM (inactive) in the assay with Malme-3M; 32.1 µM (inactive) in the assay with OVCAR-4; 16 µM (inactive) in the assay with UACC-257; 60.5 µM (inactive) in the assay on DU-145; 16.3 µM (inactive) in the assay on SF-295; 23.9 µM (inactive) with MOLT-4. Further, the GI50 with TK-10 was 34.9 µM (inactive).
Turning to `O=C(OCCC12CC3CC(CC(C3)C1)C2)c1ccc(NCc2cc(O)ccc2O)cc1`, the GI50 in the assay on HL-60 was 0.176 µM (active); with U-251 it was 0.445 µM (active); in the assay on SK-MEL-5, 1.12 µM (inactive); in the assay with SK-MEL-28, 0.849 µM (active); in the assay with SF-539 it was 0.652 µM (active); with T47D, 0.214 µM (active). Besides, the GI50 is 0.404 µM (active) in the assay on SR; 1.7 µM (inactive) with EKVX; 0.687 µM (active) in the assay with NCI/ADR-RES; 1.88 µM (inactive) with MDA-MB-231; 1.26 µM (inactive) in the assay on SNB-19; 1.26 µM (inactive) in the assay with HCT-116. Further, the GI50 in the assay with Malme-3M was 1.85 µM (inactive); in the assay on OVCAR-4, 0.904 µM (active); in the assay with UACC-257, 0.604 µM (active); in the assay on DU-145 it was 3.3 µM (inactive); in the assay with SF-295, 2.02 µM (inactive); in the assay on MOLT-4, 0.262 µM (active). Moreover, the GI50 in the assay on TK-10 is 1.52 µM (inactive).
Consider `CCCCCC(C)C[C@H]1CO[C@H](c2ccc[nH]2)N[C@H]1C(=O)OC` (some centres undefined), for which the GI50 in the assay on HL-60, in the assay with U-251, with SK-MEL-5, in the assay with HCC 2998, in the assay on SK-MEL-28 and with SF-539 was > 100 µM (inactive) throughout. Also, the GI50 with T47D, with EKVX, with NCI/ADR-RES, with MDA-MB-231, in the assay on SNB-19 and in the assay with HCT-116 was > 100 µM (inactive) in each case. The GI50 in the assay with Malme-3M, in the assay on OVCAR-4, with UACC-257, in the assay with DU-145, in the assay on SF-295 and in the assay on MOLT-4 was > 100 µM (inactive) each time. The GI50 in the assay with TK-10 was > 100 µM (inactive).
